Data as given in patent US12570612B2, “Substituted nitrogen heterocyclic compound and anesthetic effect thereof” (priority 2019, dated 2026).
Where “and” joins values, the source holds several entries; their conditions need not be identical. Identical values can stand only once. Entries after “also recorded” stand apart in the source; their conditions may differ. Like-named read-outs stand apart in the source and are kept apart here.

What was measured:
[1] = tested on: Sprague-Dawley rats; experiment: animal or person; type: in vivo; settings: rats; for ED50: LORR, up and down method, tail vein, class symbols
Text: Evaluating indicator: The end point of anesthesia: LORR was used as the end point of anesthesia; General anesthesia effect: the disappearance of forepaw righting reflex in rats lasting for 30 seconds is taken as the index of general anesthesia effect; Anesthesia recovery index: the recovery of rat forepaw righting reflex was used as the index of anesthesia recovery.

[2] = tested on: Sprague-Dawley rats; experiment: Pharmacological effect and adverse reactions under the equivalent dose (2ED50), Group C compounds; type: in vivo; settings: for Righting reflex duration / Sedation duration / Onset time: 2ED50, tail vein, rats, n=8; for Adverse reaction: Convulsions / Adverse reaction: Cough, broken-winded / Adverse reaction: Euphoria / Adverse reaction: Red urine / Adverse reaction: Slower breathing, Tetany convulsion / Adverse reaction: Systemic stiffness, Convulsions, Opisthotonus / Adverse reaction: Tongue stretching / Adverse reaction: Tremor / Adverse reaction: the four limbs rigidity: equivalent dose (2ED50), number of rats of n = 8
Text: Evaluation index: onset time: from the completion of drug injection to the disappearance of forepaw righting reflex in rats; Duration of anesthesia: the time from the disappearance of rat forepaw righting reflex to the recovery of rat forepaw righting reflex; Recovery time of anesthesia: the time from the […] to complete recovery;

[3] = tested on: Sprague-Dawley rats; type: in vivo; settings: tail vein
[4] = tested on: Sprague-Dawley rats; experiment: animal or person; settings: for Approximate therapeutic index / Minimal lethal dose: rats
Procedure: Adult male Sprague-Dawley rats (250-300 g) were selected for the experiment. […] The anesthesia effects of the compounds were assessed in rats using a LORR assay and a period >30 s was considered as an indicator of general anesthesia.

[5] = tested on: Sprague-Dawley rats; experiment: Pharmacological characteristics at equivalent doses (2ED50), Group A compounds; type: in vivo; design: Sedation duration: unit not given here; settings: 2ED50, tail vein; for Types and incidence of adverse reactions: (animals affected/animals)
[6] = tested on: H295R cell line; experiment: Adrenocortical function in vitro test: secretion of cortisol and corticosterone, Group A compounds; type: cell-based; settings: H295 cells; for EC50: 0.1-10000 nM, HPLC-MS/MS
[7] = tested on: Sprague-Dawley rats; settings: for Recovery time after stopping infusion: LORR maintained for 1 hour; for Recovery time after stopping infusion / Onset time: 2 times the MIR; for Onset time / Types and incidence of adverse reactions: continuous infusion; for Types and incidence of adverse reactions: (animals affected/animals)
Procedure: Adult male Sprague-Dawley rats with body weight ranging from 250 to 300 gm were selected for continuous infusion test. […] Time to recovery of righting reflex from stopping infusion, and time to fully awake from stopping infusion were recorded.

[8] = Rattus norvegicus, read-out: ED50
[9] = Homo sapiens, read-out: EC50 (Corticosterone)
[10] = Homo sapiens, read-out: EC50 (Cortisol)

Compound | Approximate therapeutic index [1] | Righting reflex duration [2] [min] | Sedation duration [2] [min] | Onset time ([2]; unit s) [s] | Adverse reaction: Convulsions [2] | Adverse reaction: Cough, broken-winded [2] | Adverse reaction: Euphoria [2] | Adverse reaction: Red urine [2] | Adverse reaction: Slower breathing, Tetany convulsion [2] | Adverse reaction: Systemic stiffness, Convulsions, Opisthotonus [2] | Adverse reaction: Tongue stretching [2] | Adverse reaction: Tremor [2] | Adverse reaction: the four limbs rigidity [2] | Minimal lethal dose [3] [mg/kg] | Approximate therapeutic index [4] | Minimal lethal dose [4] [mg/kg] | Onset time [5] [min] | Righting reflex duration [5] [min] | Types and incidence of adverse reactions [5] | Corticosterone as an indicator to determine the presence of inhibition [6] | other results
COCC(=O)c1c(F)ncn1[C@H](C)c1ccccc1 [Compound C71] | >8.0 | 2.00 ± 0.81 | 5.11 ± 1.64 | <30 | 2 | 0 | 0 | 8 | 0 | 0 | 0 | 1 | 1 | >6.6 | – | – | – | – | – | – | ED50 [1]: ++ (++ means that the measured ED50 is in the range of 0.50-1.00 mg/kg (excluding 0.50 mg/kg, including 1.00 mg/kg))
CCC(CC)OCC(=O)c1c(F)ncn1[C@H](C)c1ccccc1 [Compound C78] | >14.3 | 2.59 ± 0.99 | 7.30 ± 1.85 | <30 | 0 | 0 | 0 | 8 | 0 | 0 | 1 | 0 | 1 | >11.5 | – | – | – | – | – | – | ED50 [1, 8]: 0.5 to 1 mg/kg
COCC(=O)c1cncn1[C@H](C)c1ccccc1 [Compound C33] | >2.8 | 1.62 ± 0.85 | 4.43 ± 0.92 | <30 | 0 | 0 | 0 | 8 | 0 | 0 | 0 | 1 | 0 | >14.2 | – | – | – | – | – | – | –
CC#CCOCC(=O)c1c(F)ncn1[C@H](C)c1ccccc1 [Compound C69] | >19.2 | 1.91 ± 0.68 | 6.28 ± 1.62 | <30 | 0 | 0 | 0 | 8 | 0 | 1 | 0 | 0 | 0 | >4.2 | – | – | – | – | – | – | ED50 [1, 8]: 0.04 to 0.5 mg/kg
C[C@H](c1ccccc1)n1cnc(F)c1C(=O)COCC1CCC1 [Compound C70] | >18.2 | 1.35 ± 0.61 | 5.30 ± 1.14 | <30 | 0 | 0 | 4 | 8 | 0 | 0 | 0 | 0 | 6 | >6.4 | – | – | – | – | – | – | ED50 [1]: + (+ indicates that the measured ED50 is in the range of 0.04-0.50 mg/kg (including 0.04 and 0.50 mg/kg))
C#CCOCC(=O)c1cncn1[C@H](C)c1ccccc1 [Compound C35] | >12.9 | 2.26 ± 0.81 | 4.89 ± 0.98 | <30 | 0 | 0 | 0 | 8 | 0 | 7 | 1 | 0 | 0 | >10.3 | – | – | – | – | – | – | ED50 [1, 8]: 0.5 to 1 mg/kg
CC#CCOCC(=O)c1cc(F)nn1[C@H](C)c1ccccc1 [Compound C14] | >6.0 | 1.38 ± 0.47 | 9.03 ± 1.58 | – | 0 | 0 | 1 | 8 | 0 | 0 | 0 | 1 | 0 | >14.5 | – | – | – | – | – | – | ED50 [1]: ++++ (++++ indicates that the measured ED50 is in the range of 2.00-10.00 mg/kg (excluding 2.00 mg/kg, including 6.00 mg/kg)); Onset time ([2]; unit min): <60 s
C=C=CC(C)(C)OC(=O)c1ccnn1[C@H](C)c1ccccc1 [Compound A14] | – | – | – | – | – | – | – | – | – | – | – | – | – | – | >8 | >11 | 0.78 ± 0.22 | 1.20 ± 0.72 | Red urine(5/5), Four limbs; also recorded: Tremor(1/5) | 0 | ED50 ([4]; Rattus norvegicus): 1 to 2 mg/kg; Cortisol as an indicator to determine the presence of inhibition [6]: 0; EC50 [6, 9]: > 1000 nM; EC50 [6, 10]: > 1000 nM; Recovery time after stopping infusion [7]: 10 to 14 min; Onset time [7]: 6 to 7 min; Types and incidence of adverse reactions [7]: Tremor(1/6),
CC(=O)C1=C(OC(=O)c2c(F)cnn2[C@H](C)c2ccccc2)CCC1 [Compound A90] | – | – | – | – | – | – | – | – | – | – | – | – | – | – | >5 | >10 | 0.51 ± 0.07 | 5.21 ± 1.45 | Red and urine(8/8), Convulsions(2/ and 8), Nod(1/8) | 0 | ED50 ([4]; Rattus norvegicus): 1 to 2 mg/kg; Cortisol as an indicator to determine the presence of inhibition [6]: 0; EC50 [6, 9]: > 1000 nM; EC50 [6, 10]: > 1000 nM; Recovery time after stopping infusion [7]: 2 to 15 min; Onset time [7]: 5 to 6 min; Types and incidence of adverse reactions [7]: Tremor(3/6)
COC(=O)C1=C(OC(=O)c2ccnn2[C@H](C)c2ccccc2)CCC1 [Compound A20] | – | – | – | – | – | – | – | – | – | – | – | – | – | – | >10 | >12 | 0.67 ± 0.14 | 1.15 ± 0.66 | Red urine(8/8), Hindlimb; also recorded: rigidity(3/8), General; also recorded: Tremor(1/8) | 0 | ED50 ([4]; LORR in rats, tail vein, brackets = 95% confidence limit): C (C indicates that the measured ED50 is in the range of 1.00-2.00 mg/kg (excluding 1.00 mg/kg, including 2.00 mg/kg)); Sedation duration [5]: 7.05 ± 3.95; Cortisol as an indicator to determine the presence of inhibition [6]: 0; EC50 ([6]; read-out: EC50 (Corticosterone)): > 100 nM; EC50 ([6]; read-out: EC50 (Cortisol)): > 100 nM; Recovery time after stopping infusion [7]: 12 to 15 min; Onset time [7]: 5 to 6 min; Types and incidence of adverse reactions [7]: Tremor(5/6)
C[C@H](c1ccccc1)n1nccc1C(=O)OC1(C)COC1 [Compound A30] | – | – | – | – | – | – | – | – | – | – | – | – | – | – | >6 | >7 | 0.3 ± 0.22 | 2.6 ± 0.83 | Red and urine(8/8), Euphoria(3/8), and Tremor(1/8) | 0 | ED50 ([4]; Rattus norvegicus): 1 to 2 mg/kg; Cortisol as an indicator to determine the presence of inhibition [6]: 0; EC50 [6, 9]: > 1000 nM; EC50 [6, 10]: > 1000 nM; Recovery time after stopping infusion [7]: 8 to 14 min; Onset time [7]: 3 to 4 min; Types and incidence of adverse reactions [7]: Tremor(2/6)
C=C=CC1(OC(=O)c2ccnn2[C@H](C)c2ccccc2)COC1 [Compound A24] | – | – | – | – | – | – | – | – | – | – | – | – | – | – | >31 | >6 | 0.47 ± 0.09 | 1.47 ± 0.63 | Red and urine(8/8), Convulsions(5/ and 8), Hindlimb rigidity (2/8) | 0 | ED50 ([4]; Rattus norvegicus): 0.04 to 0.5 mg/kg; Cortisol as an indicator to determine the presence of inhibition [6]: 0; EC50 [6, 9]: > 1000 nM; EC50 [6, 10]: > 1000 nM; Recovery time after stopping infusion [7]: 8 to 12 min; Onset time [7]: 4 to 5 min; Types and incidence of adverse reactions [7]: Tremor(2/6), Tongue; also recorded: stretching(4/6)
